Data on 3 compounds can be found in US7109182B2, “Synthetic oligomannosides, preparation and uses thereof” (Centre Hospitalier Regional Universitaire (CHRU), priority 1999, dated 2006).

Where only a bound is given, the exact number is not on record here.

In assay [1] the test system is antibodies of pool of serum from patients with Crohn's disease. The assay can be described thus: ELISA reactivity of pool of patient serums (ASCA test) with plates sensitized with synthetic antigen. The note with it: FIG. 9, pool of patient serums used to standardize the ASCA test. The format is binding. The source says:
It has been shown that one of the major epitopes against which was directed the ASCA response of patients with Crohn's diseases was a mannotetraose of formula Man α-1,3 Man α-1,2 Man α-1,2 Man (Sendid, B. et al., 1996, Clin. Diagn. Lab. Immunol. 3: 219–26; Young, M. et al., 1998, Glycoconj. J. 15: 815–22).

A further assay concerns Factor 34. Description: ELISA antigenic reactivity with antigenic factor 34. The format is binding, rabbit. The note with it: FIG. 8. The protocol: Monospecific polyclonal antibodies from Iatron were prepared by immunization of rabbits with whole yeasts then adsorbed by yeasts of heterologous species. Used as a battery, they enable identification by agglutination of the principal species of Candida implicated in human pathology. Each of these “factors” reacts with specific epitopes which were identified by any entire series of immunochemical studies performed in Japan. The results of these studies were summarized in the publication by S. Suzuki (Suzuki, S. et al., 1997, Curr. Top. Med. Mycol. 8: 57–70).
According to the immunochemical studies performed on the Iatron serums, this structure should react with Factor 34 (Suzuki, S. et al., 1997, Curr. Top. Med. 8: 57–70).
Background: In an ELISA, binding on a coated surface is turned into a signal by an enzyme label.

The next assay concerns C. albicans (SA-40). The assay can be described thus: Experimental model of vaginal candidiasis in the rat, inhibition of colonization. Format: in vivo. The note with it: for inhibition of colonization/infection (in words): administration 1 h, α control even at the maximum dose; for inhibition of colonization/infection (in words) / level of colonization (colony-forming units in vaginal secretions): 24 h and 48 h after inoculation; for level of colonization (colony-forming units in vaginal secretions): rat. The protocol: Ovarectomized female rats were maintained in pseudo-estrus by subcutaneous injection of 0.5 mg of estradiol benzoate every 2 days during the duration of the experiments. The animals were inoculated with 0.1 ml of a 10^7 yeast solution. The kinetics of the infection were monitored by determining the number of yeasts present in the vaginal secretions. 1 μl of secretion was collected with a calibrated plastic loop and spread over a dish of Sabouraud's agar plus antibiotics; the colony-forming units were counted after 48 hours of incubation at 28° C. […] 1: the β-1,2 mannotetraose (100 μg) was administered 1 hour before inoculation. 2: 1 hour after inoculation. 3: 1 h, 24 h and 48 h after inoculation. We used a model of vaginal candidiasis recognized by the international community and with which the most pertinent animal experiments to date have been performed. The results obtained in two experimental series were in perfect agreement. […] Even at the maximum dose, the α-1,2 oligomannosides administered in the same manner as control has no effect as shown in Table 3 below.

For assay [2], the system named is C. albicans strain 10261 (4277). The assay can be described thus: Gastrointestinal colonization of neonatal mice by C. albicans, prophylactic synthetic tetramannosides. Format: in vivo, mouse. The note with it: for effect on gastrointestinal colonization by C. albicans (in words) / reduction in intestinal colonization (in words): mice; for effect on gastrointestinal colonization by C. albicans (in words): administration prior to inoculation, versus control; for reduction in intestinal colonization (in words): dose of 150 μg by gavage prior to inoculation; for degree of gastrointestinal colonization, median of CFUs: young mice, CFU/dropping 7 days after the inoculation. The protocol:
The mothers and their litters (10 to 15 baby mice/litter) were received on the 4th day of life (line CD-1® (Crl: CD-1® (ICR) BR, Charles River, Saint Aubin les Elbeuf, France). The animals were inoculated on the 6th day of life. There was always a separation from the mother for 3 hours prior to gavage and a one hour interval after inoculation.
Two strains of C. albicans were used, strain 4276 which expresses a small amount of β-1,2 oligomannosides at its surface and strain 4277 which expresses a large amount. Prior to each use, the strains were re-inoculated on Sabouraud-chloramphenicol (SC) agar from a culture stored at −80° C. in PBS-40% glycerol. After incubation for 24 hours at 35° C., the yeasts were washed 3 time in sterile physiological water (NaCl 0.9%, water φ) and the suspension was adjusted to 2×10^9/ml. The viability of the inoculum was verified for each experiment by sowing suitable dilutions of the yeast suspensions on SC agar in Petri dishes.
[…] The sugars were diluted in sterile water to obtain the desired concentration (see results) in a volume of 50 μl. Two independent experiments were carried out. In the first, 4 litters infected with strain 4277 were compared after administration, respectively, of water (litter 1), of 50 μg pf αMan (litter 2), 150 μg of βMan (litter 3) or 150 μg of 0αMan (litter 4). In the second experiment, four litters were infected either with strain 4276 (litters 1 and 2) or with strain 4277 (litters 3 and 4) after treatment with water (litters 1 and 3) or 50 μg of bMan (litters 2 and 4).
• Mortality: the cages were monitored once daily and the number of mice was recorded. • Gastrointestinal colonization: sequentially, beginning on day 7 after the inoculation, one dropping was collected from each mouse, ground in 100 μl of sterile water with a small piston adapted to function in 1.5-ml Eppendorf tubes and the total volume was inoculated on SC agar in a Petri dish. The number of colony forming units (CFU) was counted after 24 hours of incubation at 30° C. When the CFU density prevented counting, a score was attributed on the basis of the appearance of the culture so as to allow statistical comparisons: 2 or 1000 CFU, 3 or 10,000 CFU, 4 or 100,000 CFU. 7) Statistical Analysis
The gastrointestinal colonizations according to the infecting strain and according to the treatment preceding the inoculation were compared using a nonparametric test (Mann-Whitney or Kruskall-Wallis test, depending on the number of groups) using the program Statview 4.5 for Macintosh. The percentages of positive cultures or deaths on day 1 were compared with the Fisher exact test.

Setting [3] is: strain 10261, 150 μg by gavage prior to inoculation.

As to “8-carboxyloctyl 2-O-(2-O-(3-O-α-D-mannopyranosyl)-α-D-mannopyranosyl)-α-D-mannopyranosyl)-α-D-mannopyranoside [III]”, in assay [1], the “fixation of patient antibodies (in words)” value is given as “affix according to a reaction dependent on the dose of synthetic antigen”. Further, the “antigenic reactivity with Factor 34 (in words)” value with Factor 34 is reported as “results observed correspond to the anticipated results”.
Regarding `OC[C@H]1O[C@H](O[C@@H]2[C@@H](O[C@@H]3[C@@H](O[C@@H]4C(O)O[C@H](CO)[C@@H](O)[C@@H]4O)O[C@H](CO)[C@@H](O)[C@@H]3O)O[C@H](CO)[C@@H](O)[C@@H]2O)[C@@H](O)[C@@H](O)[C@@H]1O` (stereo partly drawn) [αM A N, D-Man α(1-2) D-Man α(1-2) D-Man α(1-2) D-Man], the “inhibition of colonization/infection (in words)” value in the assay on C. albicans (SA-40) (rat vaginal candidiasis) is reported as “no effect”. For the same compound, the “level of colonization (colony-forming units in vaginal secretions)” value is greater than 100 with C. albicans (SA-40) (SA-40, 50 γ 1 h, day 0); greater than 100 with C. albicans (SA-40) (SA-40, 50 γ 1 h, day 1); 95 ± 2 with C. albicans (SA-40) (SA-40, 50 γ 1 h, day 2); 86 ± 4 in the assay with C. albicans (SA-40) (SA-40, 50 γ 1 h, day 5); 69 ± 6 in the assay on C. albicans (SA-40) (SA-40, 50 γ 1 h, day 7); 48 ± 4 with C. albicans (SA-40) (SA-40, 50 γ 1 h, day 14). In addition, the “level of colonization (colony-forming units in vaginal secretions)” value in the assay with C. albicans (SA-40) (SA-40, 50 γ 1 h, day 21) is on record as 21 ± 4; in the assay on C. albicans (SA-40) (SA-40, 100 γ 1 h, day 0), greater than 100; with C. albicans (SA-40) (SA-40, 100 γ 1 h, day 1), greater than 100; with C. albicans (SA-40) (SA-40, 100 γ 1 h, day 2) it was 93 ± 3; in the assay on C. albicans (SA-40) (SA-40, 100 γ 1 h, day 5), 83 ± 5; in the assay on C. albicans (SA-40) (SA-40, 100 γ 1 h, day 7), 71 ± 6. The “level of colonization (colony-forming units in vaginal secretions)” value was 495 in the assay on C. albicans (SA-40) (SA-40, 100 γ 1 h, day 14) and 22.4 ± 3.4 with C. albicans (SA-40) (SA-40, 100 γ 1 h, day 21). Moreover, the “effect on gastrointestinal colonization by C. albicans (in words)” value in assay [2] is given as “did not modify the degree of gastrointestinal colonization”. For the same compound, the “reduction in intestinal colonization (in words)” value in assay [2] is given as “not seen”. Further, the “degree of gastrointestinal colonization, median of CFUs” value in assay [2] (setting [3]) is recorded as 258 CFU.
In the case of `OC[C@H]1O[C@@H](O[C@@H]2[C@H](O[C@@H]3[C@H](O[C@@H]4C(O)O[C@H](CO)[C@@H](O)[C@@H]4O)O[C@H](CO)[C@@H](O)[C@@H]3O)O[C@H](CO)[C@@H](O)[C@@H]2O)[C@@H](O)[C@@H](O)[C@@H]1O` (stereo partly drawn) [βM 4, D-Man β(1-2) D-Man β(1-2) D-Man β(1-2) D-Man], the “inhibition of colonization/infection (in words)” value is given as “reduced colonization by C. albicans in a very significant manner” in the assay with C. albicans (SA-40) (rat vaginal candidiasis) and “dose-dependent relation of inhibition of colonization/infection” in the assay with C. albicans (SA-40) (rat vaginal candidiasis, listed as synthetic β-1,2 oligomannosides). Further, the “carrier state of C. albicans (in words)” value with C. albicans (SA-40) (rat vaginal candidiasis, at the end of the experiments) is “no longer be carriers of C. albicans”. The “change of level of colonization (in words)” value in the assay with C. albicans (SA-40) (rat vaginal candidiasis, beginning on the first day of administration) is on record as “decreased by close to half”. Besides, the “level of colonization (colony-forming units in vaginal secretions)” value in the assay with C. albicans (SA-40) (SA-40, 50 γ 1 h, day 0) is reported as greater than 100; in the assay on C. albicans (SA-40) (SA-40, 50 γ 1 h, day 1), greater than 100; in the assay with C. albicans (SA-40) (SA-40, 50 γ 1 h, day 2), 88 ± 6; in the assay with C. albicans (SA-40) (SA-40, 50 γ 1 h, day 5) it was 62 ± 4; in the assay on C. albicans (SA-40) (SA-40, 50 γ 1 h, day 7), 57 ± 3; with C. albicans (SA-40) (SA-40, 50 γ 1 h, day 14) it was 23 ± 5. In addition, the “level of colonization (colony-forming units in vaginal secretions)” value with C. albicans (SA-40) (SA-40, 50 γ 1 h, day 21) was less than 1; in the assay on C. albicans (SA-40) (SA-40, 100 γ 1 h, day 0), greater than 100; with C. albicans (SA-40) (SA-40, 100 γ 1 h, day 1), 87 ± 6; in the assay with C. albicans (SA-40) (SA-40, 100 γ 1 h, day 2), 83 ± 8; with C. albicans (SA-40) (SA-40, 100 γ 1 h, day 5), 40 ± 6; in the assay on C. albicans (SA-40) (SA-40, 100 γ 1 h, day 7), 54 ± 8. Moreover, the “level of colonization (colony-forming units in vaginal secretions)” value with C. albicans (SA-40) (SA-40, 100 γ 1 h, day 14) is reported as 45 ± 14; in the assay with C. albicans (SA-40) (SA-40, 100 γ 1 h, day 21), less than 1; in the assay with C. albicans (SA-40) (SA-40, 150 γ 1 h, day 0) it was greater than 100; in the assay on C. albicans (SA-40) (SA-40, 150 γ 1 h, day 1), 62 ± 7; with C. albicans (SA-40) (SA-40, 150 γ 1 h, day 2) it was 54 ± 0; in the assay with C. albicans (SA-40) (SA-40, 150 γ 1 h, day 5), 27 ± 3. Besides, the “level of colonization (colony-forming units in vaginal secretions)” value with C. albicans (SA-40) (SA-40, 150 γ 1 h, day 7) is on record as 28 ± 4; in the assay with C. albicans (SA-40) (SA-40, 150 γ 1 h, day 14), 5.6 ± 3; with C. albicans (SA-40) (SA-40, 150 γ 1 h, day 21), less than 1. In addition, the “effect on gastrointestinal colonization by C. albicans (in words)” value in assay [2] is given as “very protective”; in assay [2] (listed as synthetic β-1,2 tetramannosides) it was “drastic, dose-dependent reduction in the number of yeasts found in the stools”; in assay [2] (listed as βMan) it was “significantly decreased the degree of colonization”. In addition, in assay [2], the “reduction in intestinal colonization (in words)” value is given as “almost total reduction”. In addition, the “degree of gastrointestinal colonization, median of CFUs” value in assay [2] (strain 10261, 50 μg by gavage prior to inoculation) worked out at 48.5 CFU; in assay [2] (setting [3]) it was 5 CFU.
